Our source for the MIC values is patent US9556165B2 (priority 2012, dated 2017).

Molecules are shown by their SMILES. Values after ≈ are worked out from the molar mass of the structure shown. A value given as a limit tells only on which side of the number the result lay.

Holding throughout (format): cell-based
One assay relates to M. morganii 126/3048. Briefly: MIC determination, broth microdilution (CLSI). The note with it: Morganella morganii, 126/3048, strain 5. On the technique in general: Dilution methods test growth across graded concentrations, often in twofold steps.
In another assay the test system is strain 19. The assay is described as follows: MIC determination, broth microdilution (CLSI).
A further assay concerns B. fragilis 6688. Briefly: MIC determination, broth microdilution (CLSI). The note with it: Bacteroides fragilis, 6688, strain 15; read-out: strain 15 MIC.
For the next assay, the system named is K. pneumoniae 60. The assay is described as follows: MIC determination, broth microdilution (CLSI). The settings on record: Klebsiella pneumoniae, 60, strain 2.
The next assay relates to E. coli J62-TEM-3. The assay is described as follows: MIC determination, broth microdilution (CLSI). The settings on record: Escherichia coli, J62TEM3, read-out: strain 18 MIC, strain 18.
The next assay has as its system C. perfringens DSM756. Briefly: microbe, parasite or virus in culture. The note with it: Clostridium perfringens, DSM756, read-out: strain 16 MIC, strain 16.
For assay [1], the system named is P. aeruginosa 2297-con (AmpC derepressed). The assay is described as follows: MIC determination, broth microdilution (CLSI). The settings on record: Pseudomonas aeruginosa, read-out: strain 8 MIC, strain 8.
The next assay has as its system E. coli ATCC25922. The assay is described as follows: MIC determination, broth microdilution (CLSI). The settings on record: Escherichia coli, ATCC25922, strain 1.
The subject of a further assay is C. freundii K21/3034. The assay is described as follows: MIC determination, broth microdilution (CLSI). The note with it: Citrobacter freundii, K21/3034, strain 4.
A further assay has as its system E. cloacae 34654. Briefly: MIC determination, broth microdilution (CLSI). The note with it: Enterobacter cloacae, 34654, strain 3.
A further assay concerns P. aeruginosa PAO1. The assay is described as follows: MIC determination, broth microdilution (CLSI). The note with it: Pseudomonas aeruginosa, PAO1, strain 6.
The test system of another assay is H. influenzae ATCC 49247. Briefly: MIC determination, broth microdilution (CLSI). The note with it: Haemophilus influenzae, ATCC49247, strain 13; read-out: strain 13 MIC.
The subject of a further assay is A. baumannii ATCC15308. The assay is described as follows: MIC determination, broth microdilution (CLSI). The settings on record: Acinetobacter baumannii, ATCC15308, strain 9.
Assay [2] deals with P. aeruginosa 2297 (AmpC wt). The assay is described as follows: MIC determination, broth microdilution (CLSI). The note with it: Pseudomonas aeruginosa, strain 7.
The next assay concerns E. coli J62. The assay is described as follows: MIC determination, broth microdilution (CLSI). The note with it: Escherichia coli, J62, strain 17; read-out: strain 17 MIC.
The next assay concerns strain 20. The assay is described as follows: MIC determination, broth microdilution (CLSI).
Another assay has as its system S. maltophilia ICB7569. Briefly: MIC determination, broth microdilution (CLSI). The note with it: Stenotrophomonas maltophilia, ICB7569, strain 10.
A further assay relates to S. aureus 133. The assay is described as follows: MIC determination, broth microdilution (CLSI). The settings on record: Staphylococcus aureus, 133, strain 11; read-out: strain 11 MIC.
The next assay relates to strain 21. The assay is described as follows: MIC determination, broth microdilution (CLSI).
The next assay has as its system M. catarrhalis ICB489. The assay is described as follows: MIC determination, broth microdilution (CLSI). The note with it: Moraxella catarrhalis, ICB489, strain 12.
The next assay concerns S. pneumoniae 113. The assay is described as follows: MIC determination, broth microdilution (CLSI). The settings on record: Streptococcus pneumoniae, 113, strain 14; read-out: strain 14 MIC.

On to `CC1(C)[C@H](NC(=O)/C(=N\OCCSc2ccc(C(=N)N)cc2)c2csc(N)n2)C(=O)N1OS(=O)(=O)O` [Example 7, (2Z)-2-(2-Amino-1,3-thiazol-4-yl)-2-({2-[(4-carbamimidoylphenyl)sulfanyl]ethoxy}imino)-N-[(3S)-2,2-dimethyl-4-oxo-1-(sulfooxy)azetidin-3-yl]ethanamide], for which the MIC in the assay on M. morganii 126/3048 came to 0.5 mg/L (≈ 0.897 µM); against strain 19, 0.5 mg/L (≈ 0.897 µM); in the assay on B. fragilis 6688 it was 1 mg/L (≈ 1.79 µM); in the assay with K. pneumoniae 60 it was 1 mg/L (≈ 1.79 µM); in the assay on E. coli J62-TEM-3, 8 mg/L (≈ 14.3 µM); with C. perfringens DSM756 it was 2 mg/L (≈ 3.59 µM). Moreover, the MIC is 8 mg/L (≈ 14.3 µM) in assay [1]; 0.5 mg/L (≈ 0.897 µM) in the assay with E. coli ATCC25922; 0.5 mg/L (≈ 0.897 µM) in the assay on C. freundii K21/3034; 1 mg/L (≈ 1.79 µM) against E. cloacae 34654; 8 mg/L (≈ 14.3 µM) in the assay on P. aeruginosa PAO1; not above 0.063 mg/L in the assay with H. influenzae ATCC 49247. Besides, the MIC with A. baumannii ATCC15308 was 2 mg/L (≈ 3.59 µM); in assay [2], 16 mg/L (≈ 28.7 µM); with E. coli J62 it was 1 mg/L (≈ 1.79 µM); in the assay with strain 20 it was 1 mg/L (≈ 1.79 µM); against S. maltophilia ICB7569, 4 mg/L (≈ 7.17 µM); with S. aureus 133, not above 0.063 mg/L. The figures for the MIC in the assay on strain 21, with M. catarrhalis ICB489 and with S. pneumoniae 113 were 1 mg/L (≈ 1.79 µM), 0.25 mg/L (≈ 0.448 µM) and 2 mg/L (≈ 3.59 µM), respectively.

Consider `CC1(C)[C@H](NC(=O)/C(=N\OCCOc2ccc(C(=N)N[C@H]3CCNC3)cc2)c2csc(N)n2)C(=O)N1OS(=O)(=O)O` [Example 39, (2Z)-2-(2-Amino-1,3-thiazol-4-yl)-N-[(3S)-2,2-dimethyl-4-oxo-1-(sulfooxy)azetidin-3-yl]-2-{[2-(4-{N-[(3S)-pyrrolidin-3-yl]carbamimidoyl}phenoxy)ethoxy]imino}ethanamide], for which the MIC stood at 0.5 mg/L (≈ 0.819 µM) against M. morganii 126/3048; 0.125 mg/L (≈ 0.205 µM) in the assay with strain 19; 16 mg/L (≈ 26.2 µM) in the assay on B. fragilis 6688; 0.5 mg/L (≈ 0.819 µM) against K. pneumoniae 60; 4 mg/L (≈ 6.55 µM) in the assay with E. coli J62-TEM-3; 8 mg/L (≈ 13.1 µM) in the assay with C. perfringens DSM756. Moreover, the MIC in assay [1] came out at 2 mg/L (≈ 3.28 µM); against E. coli ATCC25922, 0.25 mg/L (≈ 0.409 µM); against C. freundii K21/3034 it was 0.25 mg/L (≈ 0.409 µM); in the assay with E. cloacae 34654, 0.5 mg/L (≈ 0.819 µM); against P. aeruginosa PAO1, 2 mg/L (≈ 3.28 µM); in the assay with H. influenzae ATCC 49247 it was 0.25 mg/L (≈ 0.409 µM). For the same molecule, the MIC is 0.5 mg/L (≈ 0.819 µM) in the assay on A. baumannii ATCC15308; 4 mg/L (≈ 6.55 µM) in [2]; 0.25 mg/L (≈ 0.409 µM) with E. coli J62; 0.25 mg/L (≈ 0.409 µM) in the assay with strain 20; 16 mg/L (≈ 26.2 µM) against S. maltophilia ICB7569; not above 0.063 mg/L in the assay with S. aureus 133. Further, the MIC against strain 21 was found to be 0.25 mg/L (≈ 0.409 µM); against M. catarrhalis ICB489, 0.25 mg/L (≈ 0.409 µM); in the assay on S. pneumoniae 113 it was 2 mg/L (≈ 3.28 µM).
